Results: patent US7232809B2, “Mitochondrially targeted antioxidants” (Antipodean Pharmaceuticals, Inc., priority 1997, dated 2007)
Like-named read-outs stand apart in the source and are kept apart here.

What was measured:
[1] = Octan-1-ol/PBS partition coefficient; type: physicochemical; settings: 200 μM, room temperature, 1 h, means±SEM of three
Experimental: (§1) The IC50 values for inhibition of lipid peroxidation were determined in rat brain homogenates, and are means±SEM or range of determinations on 2–3 brain preparations. Octan-1-ol/PBS partition coefficients are means±SEM for three independent determinations. N.D. not determined. Partition coefficients were determined by mixing 200 μM of the compound in 2 ml water-saturated octanol-1-ol with 2 ml octanol-saturated-PBS at room temperature for 1 h, then the two layers were separated by brief centrifugation and their concentrations determined spectrophotometrically from standard curves prepared in PBS or octanol. To measure antioxidant efficacy four rat brains were homogenised in 15 ml 40 mM potassium phosphate (pH 7.4), 140 mM NaCl at 4° C., particulate matter was pelleted (1,000×g at 4° C. for 15 min) and washed once and the combined supernatants stored frozen. Aliquots were rapidly thawed and 5 mg protein suspended in 800 μl PBS containing antioxidant or ethanol carrier and incubated at 37° C. for 30 min. Thiobarbituric acid reactive species (TBARS) were quantitated at 532 nm by adding 200 μl conc. HClO4 and 200 μl 1% thiobarbituric acid to the incubation, heating at 100° C. for 15 min and then cooling and clarification by centrifugation (10,000×g for 2 min).

rat brain homogenates = experiment: Inhibition of lipid peroxidation in rat brain homogenates (TBARS assay); type: biochemical
Experimental: The rat brain homogenates were incubated with or without various concentrations of the test compounds (compound 1; native Vitamin E (α-tocopherol), bromobutyl triphenylphosphonium bromide, Trolox (a water soluble form of Vitamin E) and compound 2, ie2-(2-bromoethyl)-3,4-dihydro-2,5,7,8-tetramethyl-2H-1-benzopyran-6-ol, the precursor of compound 1 (“Brom Vit E”)) and the oxidative damage occurring over the incubation was quantitated using the TBARS assay (Stocks et al., 1974, Clin Sci Mol Med 47,215–222). From this the concentration of compound required to inhibit oxidative damage by 50% was determined. In this system 210 nM compound 1 inhibited oxidative stress by 50% while the corresponding value for native Vitamin E was 36 nM. The value for bromobutyltriphenylphosphonium bromide, which contains the triphenylphosphonium moiety but not the antioxidant Vitamin E moiety was 47 μM. […] Further details of the experimental procedures and results are set out below.
as §1

rat liver mitochondria [2] = system: rat liver mitochondria
rat liver mitochondria [3] = experiment: Reduction of mitoquinone by intact mitochondria (A275); type: biochemical
Experimental: Rat liver mitochondria (100 μg/ml) were incubated in 120 mM KCl, 10 mM HEPES, 1 mM EGTA, pH 7.2 at 20° C. and A275 monitored. In panel A rotenone and succinate (5 mM) were present and mitoquinone (50 μM) was added where indicated. This experiment was repeated in the presence of malonate (20 mM) or FCCP ([…]). In panel B glutamate and malate (5 mM of each) were present from the start and mitoquinone (50 μM) was added where indicated. This experiment was repeated in the presence of FCCP or with rotenone and FCCP.

rat liver mitochondria [4] = experiment: Uptake of radiolabelled mitoquinol by energised mitochondria; type: in vitro ADME; settings: tritiated compound, reversed by FCCP
Experimental: The next step was to see if mitoquinol was accumulated by energised mitochondria. To do this a tritiated version of the compound was made, incubated with energised mitochondria and the amount taken up into the mitochondria determined.

[5] = biological target: T1, beef heart mitochondrial membranes, Complex III (Bos taurus, UniProt P00157+P13272); experiment: Oxidation of mitoquinol by beef heart mitochondrial membranes (Complex III) and reduction of cytochrome c; type: biochemical
T1 construct: from tissue; host or cells: beef heart mitochondrial membranes

[6] = Stability of the quinol form in air; type: physicochemical
Experimental: The quinone was reduced to the quinol by taking a mixture of crude quinone and quinol (73 mg, ca. 3:1 by 1H NMR) in methanol (1 mL) was added NaBH4 (21 mg, 0.55 mmol). The mixture was stirred slowly under an argon atmosphere for 10 min. Excess NABH4 was quenched with 5% HBr (0.2 mL) and the mixture extracted with CH2Cl2. The organic extract was washed with H2O (3×5 mL). Solvent was removed under reduced pressure, giving a mixture of quinone and quinol (ca 1:5 by ^1H NMR) as a pale yellow solid (55 mg). For routine preparation of the quinol form the ethanolic solution, dissolve in 5 vols of water, (=1 ml) add a pinch of NaBH4 leave on ice in the dark for 5 min, then extract 3×0.5 ml dichloromethane, Wash with water/HCl etc blow off in nitrogen, dissolve in same vol of etoh and take spectrum and store at −80 under argon. Yield about 70–80%. […] Collect the upper organic phase and evaporate to dryness under a stream of N2 and dissolve in 1 ml ethanol acidified to pH 2.

rat liver mitochondria [7] = experiment: Toxicity of mitoquinol to isolated mitochondria (membrane potential, respiration rate)
Experimental: In A rat liver mitochondria energised with succinate were incubated with various concentrations of mitoquinol and the membrane potential determined as a percentage of control incubations. In B the respiration rate of succinate energised mitochondria under state 4 (black), state 3 (white) and uncoupled (stippled) conditions, as a percentage of control incubations.
The next assays were to determine the toxicity of these compounds to mitochondria and cells. To determine the toxicity to isolated mitochondria the effect on membrane potential and respiration rate were measured (FIG. 16).

ferricytochrome c = ferricytochrome c (Homo sapiens, UniProt P99999); experiment: Reactions of mitoquinone in the absence of mitochondrial membranes; type: biochemical
Experimental: FIGS. […] In panel A rotenone and antimycin were present and for the t=0 scan, then succinate (5 mM) was added and scans repeated at 5 minute intervals as indicated. In panel B A275 was monitored in the presence of rotenone and antimycin and then mitoquinone (50 μM) was added, followed by succinate (5 mM) and malonate (20 mM) where indicated. In Panel C rotenone, ferricytochrome c (50 μM) and malonate (20 mM) were present, A275 was monitored and mitoquinol (50 μM) and myxathiazol (10 μM) were added where indicated. In panel D A550 was monitored and the experiment in Panel C was repeated in the presence of KCN. Addition of myxathiazol inhabited this rate by about 60–70%.

[8] = biological target: T2, beef heart mitochondrial membranes, Complex II (Bos taurus, UniProt P35720+Q3T189+Q95123); experiment: Reduction of mitoquinone by beef heart mitochondrial membranes with succinate (Complex II); type: biochemical
T2 construct: from tissue; host or cells: beef heart mitochondrial membranes
Experimental: FIGS. 12A to 12D show reactions of [10-(6′-ubiquinonyl)decyltriphenylphosphonium bromide] (“mitoquinone”) and the reduced form of the compound (“mitoquinol”) with mitochondrial membranes. Beef heart mitochondrial membranes (20 μg/ml) were suspended in 50 mM sodium phosphate, pH 7.2 at 20° C. In panel A rotenone and antimycin were present and for the t=0 scan, then succinate (5 mM) was added and scans repeated at 5 minute intervals as indicated. In panel B A275 was monitored in the presence of rotenone and antimycin and then mitoquinone (50 μM) was added, followed by succinate (5 mM) and malonate (20 mM) where indicated. In Panel C rotenone, ferricytochrome c (50 μM) and malonate (20 mM) were present, A275 was monitored and mitoquinol (50 μM) and myxathiazol (10 μM) were added where indicated. In panel D A550 was monitored and the experiment in Panel C was repeated in the presence of KCN. Addition of myxathiazol inhabited this rate by about 60–70%.
To determine whether the mitochondrial respiratory chain could also oxidise or reduce the compound mitoquinone was incubated with beef heart mitochondrial membranes (FIG. 12). In panel A the spectrum of fully oxidised mitoquinone in the presence of antimycin inhibited membranes is shown (t=0; FIG. 12A). Addition of succinate led to the gradual reduction of the […] as measured by repeating the measurement every five minutes and showing that the peak at 275 nm gradually disappeared, the presence of antimycin prevented the oxidation of the quinol by mitochondrial complex III.
The reduction of mitoquinone can be followed continuously at A275 nm (FIG. 12B). […] The rate of reduction of mitoquinone was 51±9.9 nmol/min/mg protein, which compares with the rate of reduction of cytochrome c by succinate in the presence of KCN of 359 nmol/min/mg. Allowing for the 2 electrons required for mitoquinone reduction compared with 1 for cytochrome c the rate of electron flux into the mitoquinone pool is of similar order to the electron flux through the respiratory chain.

[9] = system: pentane extracted beef heart mitochondria; experiment: Reactions with pentane-extracted beef heart mitochondria; type: biochemical; settings: for restoration of NADH oxidation: pentane extracted beef heart mitochondria, NADH 125 μM, 50 μM compound
Experimental: Pentane extracted beef heart mitochondria (100 μg protein/ml) were suspended in 50 mM sodium phosphate, pH 7.2 at 20° C. In Panel A NADH (125 μM) was added and A340 was monitored and ubiquinone-1 (UQ-1; 50 μM added where indicated. This was repeated in Panel b, except that mitoubiquinone (50 μM) was added. In Panel C pentane extracted mitochondria were incubated with mitoquinone (50 μM), A275 was monitored and succinate (5 mM) and malonate (20 mM) added where indicated. In Panel D pentane-extracted mitochondria were incubated with NADH (125 μM), ferricytochrome c (50 μM) and A550 was monitored and mitoquinone (50 μM) was added where indicated. Addition of myxathiazol inhibited the rate of reduction by about 60–70%;
Mitoquinone/ol may be picking up and donating electrons directly from the active sites of the respiratory complexes, or it could be equilibrating with the endogenous mitochondrial ubiquinone pool. To address this question the endogenous ubiquinone pool was removed from beef heart mitochondria by pentane extraction.

[10] = TBARS, read-out: concentration that inhibited oxidative stress by 50%
[11] = means±SEM or range, 2–3 brain preparations, read-out: IC50 for inhibition of lipid peroxidation

T2 sequence (P35720 30-169): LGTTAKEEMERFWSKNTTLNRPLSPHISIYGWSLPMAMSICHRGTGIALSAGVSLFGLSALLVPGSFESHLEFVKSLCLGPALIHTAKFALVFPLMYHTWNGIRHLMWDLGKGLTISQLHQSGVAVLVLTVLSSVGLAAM
T2 sequence (Q95123 56-158): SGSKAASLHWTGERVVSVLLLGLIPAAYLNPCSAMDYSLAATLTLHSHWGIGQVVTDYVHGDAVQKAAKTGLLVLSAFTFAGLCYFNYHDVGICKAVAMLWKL
T2 sequence (Q3T189 29-280): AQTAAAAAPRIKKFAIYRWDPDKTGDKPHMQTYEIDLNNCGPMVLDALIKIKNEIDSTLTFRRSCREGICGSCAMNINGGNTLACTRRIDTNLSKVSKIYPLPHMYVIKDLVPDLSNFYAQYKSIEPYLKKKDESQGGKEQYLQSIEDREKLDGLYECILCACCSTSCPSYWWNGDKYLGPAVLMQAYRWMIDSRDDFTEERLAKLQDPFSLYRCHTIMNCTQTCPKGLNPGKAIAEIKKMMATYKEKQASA
T2 sequence (P31039 44-665 partner): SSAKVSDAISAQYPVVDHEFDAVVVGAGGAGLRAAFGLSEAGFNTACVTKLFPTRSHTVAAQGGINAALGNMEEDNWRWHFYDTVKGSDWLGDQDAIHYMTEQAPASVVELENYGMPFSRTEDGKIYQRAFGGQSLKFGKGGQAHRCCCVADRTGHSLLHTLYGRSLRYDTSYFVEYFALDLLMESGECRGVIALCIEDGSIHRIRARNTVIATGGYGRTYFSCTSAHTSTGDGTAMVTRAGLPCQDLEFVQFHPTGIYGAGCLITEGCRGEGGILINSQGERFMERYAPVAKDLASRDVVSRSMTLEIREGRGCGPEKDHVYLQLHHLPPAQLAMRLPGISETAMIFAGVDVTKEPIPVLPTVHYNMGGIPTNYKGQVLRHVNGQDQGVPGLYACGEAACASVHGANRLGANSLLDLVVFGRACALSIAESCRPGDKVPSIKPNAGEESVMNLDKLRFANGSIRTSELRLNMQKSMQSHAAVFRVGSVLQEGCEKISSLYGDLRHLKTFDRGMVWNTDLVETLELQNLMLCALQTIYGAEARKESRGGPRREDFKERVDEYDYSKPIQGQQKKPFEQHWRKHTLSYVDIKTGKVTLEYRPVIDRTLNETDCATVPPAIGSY
ferricytochrome c, sequence (P99999 whole entry): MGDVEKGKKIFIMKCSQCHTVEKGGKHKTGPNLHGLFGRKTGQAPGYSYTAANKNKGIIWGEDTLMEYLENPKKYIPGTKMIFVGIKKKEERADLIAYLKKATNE

BrCCCC[P+](c1ccccc1)(c1ccccc1)c1ccccc1.[Br-] [BrBTP, bromobutyltriphenylphosphonium bromide]
Octanol:PBS partition coefficient [1]: 3.83 ± 0.22 | IC50 (rat brain homogenates; [10]): 47 µM

Cc1c(C)c2c(c(C)c1O)CCC(C)(CCBr)O2 (stereo not drawn) [Bromo Vit E, 2-(2-bromoethyl)-3,4-dihydro-6-hydroxy-2,5,7,8-tetramethyl-2H-1-benzopyran]
Octanol:PBS partition coefficient [1]: 33.1 ± 4.4 | IC50 (rat brain homogenates; [11]): 0.045 ± 0.026 µM

C[P+](c1ccccc1)(c1ccccc1)c1ccccc1 [TPMP, methyltriphenylphosphonium, reference compound]
proportion membrane-bound within mitochondria (rat liver mitochondria [2]): About 60% | change in A275 (rat liver mitochondria [3]; 50 μM added instead of mitoquinone): did not lead to changes in A275

Cc1c(C)c2c(c(C)c1O)CCC(C)(C(=O)O)O2 (stereo not drawn) [Trolox]
IC50 (rat brain homogenates; [11]): 18.5 ± 5.9 µM

COc1c(O)c(C)c(CCCCCCCCCC[P+](c2ccccc2)(c2ccccc2)c2ccccc2)c(O)c1OC [mitoquinol, 10-(6′-ubiquinolyl)decyltriphenylphosphonium bromide]
accumulation by energised mitochondria (rat liver mitochondria [4]): accumulated rapidly | inhibition of rate by myxathiazol ([5]; FIG. 12 panel D, KCN present, myxathiazol 10 μM): 60–70% | initial rate of oxidation of mitoquinol ([5]; membranes inhibited with rotenone and malonate, mean of 2 +/- range): about 89±9 mmol mitoquinol/min/mg protein | initial rate of reduction of cytochrome c on addition of mitoquinol ([5]; membranes supplemented with ferricytochrome c, mean+/-range): about 93+/−13 nmol/min/mg | cytochrome c reduction not blocked by myxathiazol ([5]; myxathiazol): 30–40% | stability in air [6]: Oxidises rapidly in air | effect on mitochondrial function (rat liver mitochondria [7]; 10 μM): little effect on mitochondrial function | effect on mitochondrial function (rat liver mitochondria [7]; 25 μM and above): some uncoupling and inhibition of respiration

COC1=C(OC)C(=O)C(CCCCCCCCCC[P+](c2ccccc2)(c2ccccc2)c2ccccc2)=C(C)C1=O [mitoquinone, 10-(6′-ubiquinonyl)decyltriphenylphosphonium bromide]
reaction on mixing with 50 μM ferricytochrome c (ferricytochrome c; 50 μM, A550): some reduction of A550 | reaction with succinate or NADH in the absence of mitochondrial membranes (ferricytochrome c; no membranes): no reaction | proportion reduced by succinate ([8]; antimycin inhibited beef heart membranes, succinate 5 mM): about 23% | Eh corresponding to proportion reduced ([8]; equilibration with succinate/fumarate couple): about +8 mV | rate of reduction of mitoquinone ([8]; rotenone inhibited membranes, succinate): 51±9.9 nmol/min/mg protein | restoration of NADH oxidation [9]: restored NADH oxidation | inhibition of NADH-ferricytochrome c activity by myxathiazol ([9]; pentane extracted mitochondria, mitoquinone 50 μM): 60–70% | reduction by intact energised mitochondria (rat liver mitochondria [3]; rat liver mitochondria, 50 μM): rapidly reduced | decrease of rate of reduction with FCCP (rat liver mitochondria [3]; uncoupler FCCP present): 2–3 fold

COC1=C(OC)C(=O)C(CC=C(C)C)=C(C)C1=O [ubiquinone-1, reference compound]
restoration of NADH oxidation [9]: partially restored

Cc1c(C)c2c(c(C)c1O)CC[C@@](C)(CCC[C@H](C)CCC[C@H](C)CCCC(C)C)O2 [α-Tocopherol, α-tocopherol]
Octanol:PBS partition coefficient [1]: 27.4 ± 1.0 | IC50 (rat brain homogenates; [10]): 0.036 µM
